Reference: ChEMBL document CHEMBL1201862, “PubChem BioAssay data set” (2004)
Activity calls are given as the source filed them.

How the values were obtained:
Candida albicans = assay: fluconazole-resistant Candida strain growth inhibitors – CaCi-8 strain, dry powder, set 4, dose response (AID 488950); type: functional, organism-based
[1] = molecular target: T1, Short transient receptor potential channel 4 (Mus musculus, UniProt Q9QUQ5); assay: SAR Analysis for the identification of selective inhibitors of the transient receptor potential cation channel C4 (TRPC4): TRPC4 Serotonin Receptor CRC MPD assay. [Related pubchem assays (depositor defined):AID2247, AID2256]; type: functional
T1 sequence (Q9QUQ5 whole entry): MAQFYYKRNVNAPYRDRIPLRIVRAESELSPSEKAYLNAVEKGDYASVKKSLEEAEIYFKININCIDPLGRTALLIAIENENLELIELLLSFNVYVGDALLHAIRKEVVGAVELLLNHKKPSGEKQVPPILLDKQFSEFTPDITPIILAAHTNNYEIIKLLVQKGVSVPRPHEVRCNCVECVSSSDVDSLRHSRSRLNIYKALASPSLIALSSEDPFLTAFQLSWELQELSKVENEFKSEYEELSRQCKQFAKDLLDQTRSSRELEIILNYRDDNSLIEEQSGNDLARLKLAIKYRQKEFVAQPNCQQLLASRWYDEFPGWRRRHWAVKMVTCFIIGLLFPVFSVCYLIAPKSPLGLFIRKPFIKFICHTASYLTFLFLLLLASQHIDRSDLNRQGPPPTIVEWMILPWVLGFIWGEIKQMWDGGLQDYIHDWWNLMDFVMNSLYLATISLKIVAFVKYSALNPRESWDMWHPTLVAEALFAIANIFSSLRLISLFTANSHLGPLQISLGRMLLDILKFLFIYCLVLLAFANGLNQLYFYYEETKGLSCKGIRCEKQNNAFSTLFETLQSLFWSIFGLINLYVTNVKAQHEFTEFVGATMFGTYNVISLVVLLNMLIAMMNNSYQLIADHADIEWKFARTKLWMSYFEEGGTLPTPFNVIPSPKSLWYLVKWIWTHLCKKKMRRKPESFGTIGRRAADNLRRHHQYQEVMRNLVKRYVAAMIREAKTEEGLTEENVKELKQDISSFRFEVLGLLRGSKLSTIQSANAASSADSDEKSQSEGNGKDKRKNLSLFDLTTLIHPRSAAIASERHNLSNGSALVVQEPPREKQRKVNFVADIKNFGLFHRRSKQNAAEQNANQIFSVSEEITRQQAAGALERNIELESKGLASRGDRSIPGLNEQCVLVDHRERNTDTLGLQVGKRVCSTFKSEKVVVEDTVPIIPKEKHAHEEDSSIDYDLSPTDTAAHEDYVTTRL

[2] = molecular target: T1, Short transient receptor potential channel 4; assay: SAR Analysis for the identification of selective inhibits of the transient receptor potential cation channel C4 (TRPC4): Automated Electrophysiology. [Related pubchem assays (depositor defined):AID2256]; type: functional
[3] = molecular target: T1, Short transient receptor potential channel 4; assay: potency of mouse TRPC4 calcium flux blockers – cell-based, HEK293 TRPC4/mu-opioid, DAMGO stimulus, Fluo-4, dose response (AID 492994); type: functional
[4] = molecular target: T1, Short transient receptor potential channel 4; assay: mouse TRPC4 block via Gq-coupled stimulation – cell-based, acetylcholine stimulus, HEK293 TRPC4, Fluo-4, SAR follow-up (AID 492996); type: functional
[5] = molecular target: T1, Short transient receptor potential channel 4; assay: block of DAMGO-driven TRPC4 calcium entry – cell-based, HEK293 TRPC4/mu-opioid, Fluo-4 calcium, dose response (AID 434942); type: functional;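 also: potency of inhibitors blocking the TRPC4 calcium response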
Vero [6] = assay: cells; type: functional; conditions: Chlorocebus sabaeus
BJ [7] = assay: cells; type: functional, cell-based; conditions: Homo sapiens
Cytochrome P450 2C19 = Cytochrome P450 2C19 (Homo sapiens, UniProt P33261); assay: Cytochrome panel assay with activity outcomes. Panel member name: p450-cyp2c19 Compounds with AC50 equal or less than 10 uM are considered active; type: functional; conditions: read-out: AC50
Cytochrome P450 2D6 = Cytochrome P450 2D6 (Homo sapiens, UniProt P10635);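 also: CYP2D6 member of a cytochrome P450 panel assay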
[8] = DRD fibroblast viability loss – cell-based, non-viral oncogenic, luminescence, dose response (AID 1934); type: functional; conditions: Homo sapiens
[9] = molecular target: Heat shock protein HSP 90-alpha (Homo sapiens, UniProt P07900); type: functional, organism-based
cells [10] = type: functional, cell-based
Streptococcus = assay: GAS UMAA2166 growth inhibition – luminescence, BacTiterGlo, counter-screen for streptokinase expression inhibitor project, dose response (AID 1915); type: functional, organism-based;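 also: potency for reduction of bacterial viability or growth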
Vero [11] = assay: cells; type: functional, cell-based; conditions: Chlorocebus sabaeus
[12] = test system: Streptococcus sp. 'group A'; assay: Streptococcus pyogenes SK(-)GAS viability under kanamycin – luminescence, BacTiterGlo, confirmation, counter-screen for streptokinase expression inhibitor project, dose response (AID 1900); type: functional, organism-based
BJ [13] = assay: BJ-TERT-LT-ST fibroblast viability loss – cell-based, RAS-independent, luminescence, dose response (AID 1935); type: functional; conditions: Homo sapiens;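 also: BJ fibroblasts immortalized with TERT plus LT and ST oncogenes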
[14] = reduction of Shn3 3'UTR-driven luciferase in osteoblasts – cell-based, Clone20 osteoblasts, firefly luciferase, cherry-picked, dose response (AID 624132); type: functional;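 also: firefly luciferase luminescence from reporter carrying the Shn3 3'UTR in osteoblasts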
INS1 = assay: INS-1E survival protection against cytokine death – cell-based, luminescence, retest, dose response (AID 449756); type: functional; conditions: Rattus norvegicus;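 also: cell death triggered by IL-1 beta plus TNF-alpha plus IFN-gamma mixture; protective hits raise ATP signal compared with cytokine alone wells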
Cytochrome P450 1A2 = molecular target: T2, Cytochrome P450 1A2 (Homo sapiens, UniProt P05177);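 also: PubChem cytochrome P450 panel assay, CYP1A2 panel member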
T2 sequence (P05177 whole entry): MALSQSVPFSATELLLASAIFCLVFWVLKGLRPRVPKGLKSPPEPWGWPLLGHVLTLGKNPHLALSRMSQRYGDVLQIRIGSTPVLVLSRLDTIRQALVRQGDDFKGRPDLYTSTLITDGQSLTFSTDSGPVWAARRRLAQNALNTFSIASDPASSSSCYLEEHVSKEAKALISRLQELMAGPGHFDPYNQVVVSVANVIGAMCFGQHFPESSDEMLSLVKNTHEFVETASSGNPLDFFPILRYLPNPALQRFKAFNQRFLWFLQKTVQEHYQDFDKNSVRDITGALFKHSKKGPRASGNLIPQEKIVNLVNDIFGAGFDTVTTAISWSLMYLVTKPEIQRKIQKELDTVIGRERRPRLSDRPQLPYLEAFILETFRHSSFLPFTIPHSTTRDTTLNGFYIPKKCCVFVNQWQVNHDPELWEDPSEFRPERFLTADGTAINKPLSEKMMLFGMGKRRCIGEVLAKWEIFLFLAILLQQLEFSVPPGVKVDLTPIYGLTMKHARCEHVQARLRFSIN

cells [15] = type: functional, cell-based; remark: listed apart in the source
BJ [16] = assay: BJ-TERT fibroblast viability loss – cell-based, RAS-independent, luminescence, dose response (AID 1933); type: functional; conditions: Homo sapiens
[17] = molecular target: Serine/threonine-protein phosphatase (Candida dubliniensis (strain CD36 / CBS 7987 / NCPF 3949 / NRRLY-17841) (Yeast), UniProt B9W6M3); assay: blockers of CaCl2-induced CDRE-lacZ signaling – S. cerevisiae, luminescence, secondary, dose response (AID 2388); type: functional, cell-based;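 also: yeast reporter cells carrying a calcineurin-responsive lacZ construct stimulated with calcium chloride; luminescent beta-galactosidase reporter signal in whole cells rather than isolated phosphatase activity; potency for inhibition where a drop in reporter signal means calcineurin blockade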
[18] = fluconazole-exposed Candida albicans growth modulators – fluorescence, retest, confirmation (AID 2467); type: functional, cell-based
[19] = non-specific 3'UTR reporter inhibition in Clone20-Shn3RL – cell-based, Renilla luciferase, cherry-picked, counter-screen for Shn3 inhibitor project, dose response (AID 624133); type: functional
[20] = NIH-3T3 fibroblast cytotoxicity, dose response, cytotoxicity control, cell-based, fluorescence, Alamar Blue, secondary assay (AID 2327); type: functional;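 also: NIH-3T3 mouse fibroblasts cultured with fluconazole at 8 µg/mL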
[21] = molecular target: ATP-dependent molecular chaperone HSP82 (Candida albicans (strain WO-1) (Yeast), UniProt C4YTQ8); assay: steroid-induced GRE reporter decrease in yeast – S. cerevisiae, luminescence, Hsp90 inhibitor project, dose response (AID 2400); type: functional, cell-based;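 also: beta-galactosidase luminescence from glucocorticoid response element reporter as proxy for Hsp90 function; inhibitor potency where signal loss means Hsp90 inhibition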
Chain of ATP-dependent molecular chaperone HSP82 (C4YTQ8 whole entry): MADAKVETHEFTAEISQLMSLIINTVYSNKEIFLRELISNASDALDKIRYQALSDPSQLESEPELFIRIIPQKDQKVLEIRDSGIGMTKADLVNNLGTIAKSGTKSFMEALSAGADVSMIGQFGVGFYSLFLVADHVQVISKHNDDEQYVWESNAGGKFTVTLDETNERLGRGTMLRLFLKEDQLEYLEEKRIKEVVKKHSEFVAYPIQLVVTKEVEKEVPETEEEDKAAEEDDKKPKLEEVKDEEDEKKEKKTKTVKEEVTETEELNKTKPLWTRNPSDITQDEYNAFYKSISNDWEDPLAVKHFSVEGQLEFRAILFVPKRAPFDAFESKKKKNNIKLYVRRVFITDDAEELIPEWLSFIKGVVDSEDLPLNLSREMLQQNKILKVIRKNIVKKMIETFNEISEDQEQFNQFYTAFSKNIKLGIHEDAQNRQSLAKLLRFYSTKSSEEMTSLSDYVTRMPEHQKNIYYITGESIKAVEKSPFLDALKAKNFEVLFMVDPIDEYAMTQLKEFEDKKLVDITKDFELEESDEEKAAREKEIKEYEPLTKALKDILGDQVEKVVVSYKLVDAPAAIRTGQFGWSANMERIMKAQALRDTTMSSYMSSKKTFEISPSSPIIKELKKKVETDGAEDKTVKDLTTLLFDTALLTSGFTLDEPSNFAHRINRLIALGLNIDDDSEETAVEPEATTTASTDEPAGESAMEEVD

Chain of Cytochrome P450 2C19 (P33261 whole entry): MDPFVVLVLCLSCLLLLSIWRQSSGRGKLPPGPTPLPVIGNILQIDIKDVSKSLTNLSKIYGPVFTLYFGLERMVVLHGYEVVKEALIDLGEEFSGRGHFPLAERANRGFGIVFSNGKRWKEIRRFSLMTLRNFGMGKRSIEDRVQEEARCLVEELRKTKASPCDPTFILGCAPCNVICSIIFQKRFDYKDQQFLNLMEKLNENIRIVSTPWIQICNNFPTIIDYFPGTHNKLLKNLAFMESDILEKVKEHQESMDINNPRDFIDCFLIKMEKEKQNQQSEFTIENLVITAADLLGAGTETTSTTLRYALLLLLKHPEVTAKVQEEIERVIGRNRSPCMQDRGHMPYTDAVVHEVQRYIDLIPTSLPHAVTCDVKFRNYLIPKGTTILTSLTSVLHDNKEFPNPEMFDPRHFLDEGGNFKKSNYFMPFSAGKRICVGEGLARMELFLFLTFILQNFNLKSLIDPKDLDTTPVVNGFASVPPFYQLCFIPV
Chain of Serine/threonine-protein phosphatase (B9W6M3 whole entry): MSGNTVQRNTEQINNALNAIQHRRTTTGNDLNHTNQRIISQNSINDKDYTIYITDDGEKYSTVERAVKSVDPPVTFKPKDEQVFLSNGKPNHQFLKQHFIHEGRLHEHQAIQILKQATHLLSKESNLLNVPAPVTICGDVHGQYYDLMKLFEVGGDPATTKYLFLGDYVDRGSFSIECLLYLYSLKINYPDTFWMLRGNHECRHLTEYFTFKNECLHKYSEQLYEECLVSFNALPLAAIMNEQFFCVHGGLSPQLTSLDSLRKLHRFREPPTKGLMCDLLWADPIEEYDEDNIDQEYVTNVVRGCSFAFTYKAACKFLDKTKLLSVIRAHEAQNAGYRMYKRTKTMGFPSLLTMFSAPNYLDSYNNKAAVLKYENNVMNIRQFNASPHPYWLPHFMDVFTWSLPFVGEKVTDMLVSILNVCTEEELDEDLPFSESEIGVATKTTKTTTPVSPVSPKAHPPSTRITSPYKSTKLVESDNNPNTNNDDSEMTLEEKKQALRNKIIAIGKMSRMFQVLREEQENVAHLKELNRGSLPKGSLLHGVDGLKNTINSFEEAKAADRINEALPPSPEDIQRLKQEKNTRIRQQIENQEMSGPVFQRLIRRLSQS
Chain of Cytochrome P450 2D6 (P10635 whole entry): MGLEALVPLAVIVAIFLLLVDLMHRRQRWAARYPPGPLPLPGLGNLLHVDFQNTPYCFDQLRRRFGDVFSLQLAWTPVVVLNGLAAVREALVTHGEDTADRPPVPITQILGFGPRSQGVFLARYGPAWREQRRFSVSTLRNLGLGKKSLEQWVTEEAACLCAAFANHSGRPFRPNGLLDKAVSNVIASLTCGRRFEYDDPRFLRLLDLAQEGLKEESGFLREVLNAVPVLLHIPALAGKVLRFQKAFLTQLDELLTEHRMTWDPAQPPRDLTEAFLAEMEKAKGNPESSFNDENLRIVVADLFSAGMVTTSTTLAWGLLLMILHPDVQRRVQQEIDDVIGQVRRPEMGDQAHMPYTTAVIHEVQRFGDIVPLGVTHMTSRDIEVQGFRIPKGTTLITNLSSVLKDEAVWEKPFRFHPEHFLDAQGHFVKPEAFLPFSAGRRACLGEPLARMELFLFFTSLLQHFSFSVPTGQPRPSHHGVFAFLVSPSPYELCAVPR

O=C(c1ccc(Cl)cc1)N1CCN(c2ccnc3ccccc23)CC1
AC50 (Candida albicans): 9.81 µM (active)

Cc1cc(N2CCCCC2)nc2ccccc12
IC50 [1]: 2.24 µM (active) | IC50 [2]: 2.63 µM (active) | IC50 [3]: 0.82 µM (active) | IC50 [4]: 1.23 µM (active) | EC50 [5]: 0.0027 µM (active)

Oc1c(CN2CCN(c3ccccc3)CC2)cc(Br)c2cccnc12
CC50 (Vero [6]): 3.51 µM (active) | EC50 (BJ [7]): 12.7 µM (inconclusive) | AC50 (Cytochrome P450 2C19): 3.98 µM (inconclusive) | AC50 (Cytochrome P450 2D6): 3.98 µM (inconclusive) | EC50 [8]: 14 µM (active) | AC50 [9]: 4.59 µM (active) | EC50 (cells [10]): 62.6 µM (active) | EC50 (Streptococcus): 2.95 µM (active) | IC50 (Vero [11]): > 12.5 µM (active) | EC50 [12]: 1.47 µM (active) | EC50 (BJ [13]): 8.16 µM (inconclusive) | AC50 [14]: 1.92 µM (active) | AC50 (INS1): 2.42 µM (active) | AC50 (Cytochrome P450 1A2): 1.26 µM (inconclusive) | EC50 (cells [15]): > 350 µM (not active) | EC50 (BJ [16]): 5.2 µM (active) | EC50 [17]: > 180 µM (inactive) | EC50 [18]: 0.656 µM (active) | AC50 [19]: 1.84 µM (active) | EC50 [20]: > 160 µM (inconclusive) | EC50 [21]: 21.3 µM (active)
